Assay results: patent US20210059590A1, “IDENTIFICATION OF AND TREATMENT FOR PERSONS AT HIGH RISK FOR DEVELOPING MAJOR DEPRESSIVE DISORDER” (The Trustees of Columbia University in the City of New York, priority 2018, published 2021)
Like-named read-outs stand apart in the source and are kept apart here.

Assay: Plasma free fraction (fP) of the PET tracer
Format: in vitro ADME, human
Settings: for fraction unbound: human, plasma
Description: Arterial plasma radioactivity, metabolites, and plasma free fraction (fP) were collected and assayed as previously described (Parsey et al., 2006; Parsey et al., 2000). Unmetabolized parent fraction levels were fit with a Hill function (Wu et al., 2007). The input function was corrected for unmetabolized tracer by multiplying the total plasma counts with the interpolated parent fraction. The metabolite-corrected arterial input function was fit as the combination of a straight line and the sum of three decreasing exponentials, describing the function before and after the peak, respectively.

Percent Free Fraction (Depressed NRM MDD subjects, N=30, mean ± SD): 6.15 ± 1.72% | Percent Free Fraction (Healthy Volunteers (HV), N=51, mean ± SD): 8.10 ± 2.39% | fraction unbound (Depressed NRM MDD subjects, N=30, mean ± SD, read-out: Percent Free Fraction): ~0.062 | fraction unbound (Healthy Volunteers (HV), N=51, mean ± SD, read-out: Percent Free Fraction): ~0.08 | fraction unbound (High Risk (HR) subjects, N=9, mean ± SD, read-out: Percent Free Fraction): 0.065 | fraction unbound (Medication Exposed MDD patients, n=66, off antidepressants at least two weeks, read-out: Plasma free fraction (fp)): 0.07 ± 0.02 | fraction unbound (Medication Naïve MDD patients, n=32, read-out: Plasma free fraction (fp)): 0.06 ± 0.02
SMILES: COc1ccccc1N1CCN(CCN(C(=O)C2CCCCC2)c2ccccn2)CC1 [[^11C]WAY-100635, N-[2-[4-(2-methoxyphenyl)-1-piperazinyl]ethyl]-N-2-pyridinylcyclohexanecarboxamide]
